From patent publication US20250057944A1, “OLIGOSACCHARIDE COMPLEXES AND USES” (BioNTech SE, priority 2021, published 2025)

Experiments:
[1] = Hydrodynamic diameter of complexes by dynamic light scattering; type: physicochemical
Description: Sizes of complexes described in the present examples were analyzed by DynaPro PlateReader II, using dynamic light scattering (DLS) for calculating the hydrodynamic diameter of complexes. […] Ten acquisitions are recorded per well, each lasting 5 seconds.

BALB/c mice [2] = test: In-vivo luciferase expression in applied tissue after i.m. application of RNA complexes; conditions: N/P 6 (FIG. 7B)
BALB/c mice [3] = conditions: mouse, in vivo
C57BL/6 IFNAR −/− mice = type: in vivo
BALB/c mice [4] = conditions: mouse, in vivo; remark: listed apart in the source
hPBMCs = test: Cytokine secretion by hPBMCs 24 h after transfection with modRNA formulations (MSD kit); type: cell-based, human; conditions: oligosaccharide:Tween40 1:0.5, modRNA, N/P 6, 24 hours (FIGS. 19A-D)
Description: All groups received modRNA formulated at N/P 6. Formulations were complexed with RNA in MBG Buffer (final concentration 5% w/v Glucose, 10 mM MES, pH 6.1), at RNA final concentration of 0.15 mg/ml and the mixing ratio of the RNA containing solution and the oligosaccharide+Tween40 containing solution was 9:1 (v:v) for all the cases. IL-6, TNF-α, IL-1β and IFN-γ secretion after 24 hours of transfection of […] hPMBCs was evaluated in the supernatants using MSD Kit Standard Protocol.

BALB/c mice [5] = test: Intramuscular vaccination with HA modRNA formulated with oligosaccharide+Tween40 (Example 10); conditions: mouse, in vivo

Structure (SMILES): CCCCCCCCCC(=O)OC1C(OC(=O)CCCCCCCCC)[C@H](OC(=O)CCCCCCCCC)C(CSCCNC(=S)NCCN2CCOCC2)O[C@@H]1O[C@H]1OC(CSCCNC(=S)NCCN2CCOCC2)[C@@H](OC(=O)CCCCCCCCC)C(OC(=O)CCCCCCCCC)C1OC(=O)CCCCCCCCC (stereo partly drawn) [JLF99]
- Hydrodynamic diameter ([1]; saRNA, N/P 6 (FIG. 5A)): about 150 nm
- modRNA expression (bioluminescence normalized to the JLF41-modRNA group) (BALB/c mice [2]): promising modRNA expression
- Delivery of RNAs and immune response (BALB/c mice [3]): functionally delivered all the RNAs upon i.m injection and elicited a strong immune response
- Immunological response with CCHFV-Gc antigen (C57BL/6 IFNAR −/− mice; JLF99+Tween40 1:0.5, 1.3 μg saRNA i.m., prime/boost d0/d28, N/P6): strong immunological response
- Antibody level versus LNP (C57BL/6 IFNAR −/− mice; mouse, in vivo): lower than the LNP
- Antibody levels versus LNP benchmark (C57BL/6 IFNAR −/− mice; mouse, in vivo): identical to the ones achieved by the LNP benchmark
- T-cell responses against Gc-peptides (C57BL/6 IFNAR −/− mice; mouse, in vivo): equally strong
- CD4-CD8 response versus LNP benchmark (BALB/c mice [4]): no significant difference
- IgG against HA-antigen over the course of the experiment versus LNP benchmark (BALB/c mice [4]): no apparent differences
- Serological concentration of IgG at the end-point (day 49) (BALB/c mice [4]): comparable to the LNP group

Structure (SMILES): CCCCCCCCCC(=O)OC1C(OC(=O)CCCCCCCCC)[C@H](OC(=O)CCCCCCCCC)C(CSCCNC(=S)NCCn2ccnc2)O[C@@H]1O[C@H]1OC(CSCCNC(=S)NCCn2ccnc2)[C@@H](OC(=O)CCCCCCCCC)C(OC(=O)CCCCCCCCC)C1OC(=O)CCCCCCCCC (stereo partly drawn) [JLF110]
- Level of secretion of pro-inflammatory cytokines, IL-6, TNF-α, IL-1β and IFN-γ (hPBMCs): medium levels of secretion

Structure (SMILES): CCCCCCCCCC(=O)OC1C(OC(=O)CCCCCCCCC)[C@H](OC(=O)CCCCCCCCC)C(CSCCNC(=S)NCCN2CCC(C(N)=O)CC2)O[C@@H]1O[C@H]1OC(CSCCNC(=S)NCCN2CCC(C(N)=O)CC2)[C@@H](OC(=O)CCCCCCCCC)C(OC(=O)CCCCCCCCC)C1OC(=O)CCCCCCCCC (stereo partly drawn) [JLF244]
- Level of secretion of pro-inflammatory cytokines, IL-6, TNF-α, IL-1β and IFN-γ (hPBMCs): highest level of secretion
- IgG concentration against HA (BALB/c mice [5]): highest IgG concentration

Structure (SMILES): CCCCCCCCCC(=O)OC1C(OC(=O)CCCCCCCCC)[C@H](OC(=O)CCCCCCCCC)C(CSCCNC(=S)NCCN(C)C)O[C@@H]1O[C@H]1OC(CSCCNC(=S)NCCN(C)C)[C@@H](OC(=O)CCCCCCCCC)C(OC(=O)CCCCCCCCC)C1OC(=O)CCCCCCCCC (stereo partly drawn) [JLF41]
- Difference in particle size between N/P 1 and N/P 6 ([1]; modRNA (FIG. 6A)): greater difference in particle size

Structure (SMILES): CCCCCCCCCC(=O)OC[C@@]1(O[C@H]2OC(CSCCNC(=S)NCCN3CCOCC3)[C@@H](OC(=O)CCCCCCCCC)[C@H](OC(=O)CCCCCCCCC)C2OC(=O)CCCCCCCCC)O[C@H](CSCCNC(=S)NCCN2CCOCC2)[C@@H](OC(=O)CCCCCCCCC)[C@@H]1OC(=O)CCCCCCCCC (stereo partly drawn) [JLF218]
- IgG concentration against HA (BALB/c mice [5]): then by JLF99 and JLF218
